Results taken from patent publication US20230256017A1, “METHODS OF MAKING CHIMERIC ANTIGEN RECEPTOR-EXPRESSING CELLS” (Novartis AG, priority 2020, published 2023).

What was measured:
Type in all cases: cell-based
T cells [1] = test: Cytokine process: T cell differentiation status and CAR transduction by flow cytometry; settings: purified T cells incubated with cytokine, no other activation stimulus
Procedure: The cells were immunophenotyped for T cell differentiation status and transduction of the CAR was assessed using flow cytometry. The cells were washed, viability dye was added followed by the antibody cocktail (Table 20), and the plates were incubated for 20 minutes at room temperature. After the incubation, the cells were washed twice and fixed prior to being analyzed on the BD fortessa.

T cells [2] = test: T cell expansion with cytokines after TCR stimulation (cell surface staining)
Procedure: Previously frozen T cells were thawed and contacted with αCD3/αCD28 dynal beads (cell to bead ratio of 1 to 3) in the presence of indicated cytokines at day 0. From day 3, twice more T cell growth media (RPMI1640, 10% FBS, 2 mM L-glutamin, 100 µM non-essential amino acids, 1 mM sodium pyruvate, 10 mM Hepes, 55 µM β-mercaptoethanol, 10% FBS, and 100 U/ml of penicillin-streptomycin) was added to the plate with indicated cytokines (without cytokine, rhIL2 (50 IU/ml, Novartis), IL6 (10 ng/ml, R&D systems), IL7 (10 ng/ml, Peprotech), IL15 (10 ng/ml, Peprotech), and IL21 (10 ng/ml, Peprotech)) at day 3, 5, 6, 9, 12, 15, and 18.
Cells were harvested at indicated time points and then stained with live/dead dye (eFluro780, eBioscience), CD3 (BioLegend, clone#: OKT3), CD4 (BioLegend, clone#: OKT4), CD8 (BD Bioscience, clone#: RPA-T8), CD45RO (BioLegend, clone#: UCHL1), CCR7 (BioLegend, clone#: G043H7), CD27 (BD Horizon, clone#: L128), CD127 (BioLegend, clone#: A019D5), CD57 (BioLegend, clone#: HCD57), CD126 (BioLegend, clon#: UV4), and CD130 (R&D Systems, clone#: 28126) antibodies. The cells were acquired by FACS Fortessa and then FlowJo program was used for data analysis.

T cells [3] = test: ARM-BCMA CAR expression kinetics in vitro with or without AZT (FACS); settings: 30 µM and 100 µM doses
Procedure: In contrast to TM which measures lentiviral integration of the CAR transgene after 8-9 days, in the ARM process, the lentiviral transgene may not be fully integrated and truly expressed within 24h post lentiviral addition, as lentiviral pseudotransduction could occur (Haas DL, et al., (2000) Mol Ther; 2(1):71-80; Galla M, et al., (2004) Mol Cell; 16(2):309-15). […] Flow cytometry (FACS) analyses were performed to detect CAR surface expression at 24 h, 48 h, 72 h, 96 h and 168 h post T cell activation and transduction with the lentiviral vector. In some cases, ARM-BCMA CAR and an aliquot of this product were frozen down immediately upon harvest for additional characterization in other assays.

Molecule: IL-15: cytokine used in T cell culture
- maintenance of self-renewing T cells (CD45RO-CCR7+) (T cells [1]): maintained self-renewing T cells in vitro

Molecule: IL15: cytokine present during activation of T cells with αCD3αCD28 beads
- expansion of IL6Rβ expressing cells (T cells [2]; αCD3/αCD28 beads plus cytokine): enhanced expansion of IL6Rβ expressing cells
- T cell expansion (T cells [2]; αCD3/αCD28 beads plus indicated cytokine): enhanced T cell expansion, with IL15 showing the greatest enhancement

Molecule: Cc1cn([C@H]2C[C@H](N=[N+]=[N-])[C@@H](CO)O2)c(=O)[nH]c1=O [AZT, 3′-azido-3′-deoxythymidine]
- inhibition of CAR expression (T cells [3]): effectively inhibit CAR expression
